Tests used:
Assay type in all cases: in vivo
[1] = tested on: barnyardgrass (Echinochloa oryzicola); assay: Test Example 4: flooding treatment on paddy fields; conditions: application amount of active ingredient 250 g/ha, examined 19 days after application, index 0 to 5
Protocol: Cylindrical plastic pots of 9 cm in diameter and 11 cm in depth were filled with soil, in which the seeds of barnyardgrass (Echinochloa oryzicola) were sowed. These pots were flooded to form a paddy field, and the test plants were grown in a greenhouse for 7 days. Each of the test compounds listed below was formulated into an emulsifiable concentrate according to Formulation Example 2, which was diluted with water to a prescribed concentration. The dilution was applied to the water surface in the pots at a volume of 50 liters per hectare. After the application, the test plants were grown in the greenhouse for 19 days, and the herbicidal activity was examined.

[2] = tested on: velvetleaf (Abutilon theophrash); assay: Test Example 1: foliar treatment on upland fields; conditions: 500 g/ha active ingredient; foliar spray; examined 19 days after application
Protocol: (§1) Cylindrical plastic pots of 10 cm in diameter and 10 cm in depth were filled with soil, in which the seeds of […] (Ipomoea hederacea var. integriuscula) and velvetleaf (Abutilon theophrash) were sowed, and the test plants were grown in a greenhouse for 19 days. Each of the test compounds listed below was formulated into an emulsifiable concentrate according to Formulation Example 2, which was diluted with water containing a spreading agent to a prescribed concentration. The dilution was uniformly sprayed over the foliage of the test plants with a sprayer at a volume of 1000 liters per hectare. After the application, the test plants were grown in the greenhouse for 19 days, and the herbicidal activity was examined.

[3] = tested on: entireleaf morningglory (Ipomoea hederacea var. integriuscula); assay: Test Example 1: foliar treatment on upland fields; conditions: 500 g/ha active ingredient; foliar spray; examined 19 days after application
Protocol: as §1

[4] = tested on: velvetleaf (Abutilon theophrash); assay: Test Example 3: soil surface treatment on upland fields; conditions: 500 g/ha active ingredient; soil surface spray; examined after 19 days
Protocol: (§2) Cylindrical plastic pots of 10 cm in diameter and […] in depth were filled with soil, in which the seeds of […] (Ipomoea hederacea var. integriuscula) and velvetleaf (Abutilon theophrash) were sowed. Each of the test compounds listed below was formulated into an emulsifiable concentrate according to Formulation Example 2, which was diluted with water to a prescribed concentration. The dilution was uniformly sprayed over the soil surface in the pots with a sprayer at a volume of 1000 liters per hectare. After the application, the test plants were grown in a greenhouse for 19 days, and the herbicidal activity was examined.

[5] = tested on: entireleaf morningglory (Ipomoea hederacea var. integriuscula); assay: as above; conditions: 500 g/ha active ingredient; soil surface spray; examined after 19 days
Protocol: as §2

[6] = tested on: velvetleaf (Abutilon theophrash); assay: Test Example 2: foliar treatment on upland fields; set-up: key: rating; 4–5 = excellent activity, 3 or lower = insufficient; conditions: 32 g/ha active ingredient; foliar spray; examined 19 days after application
Excerpt: (§3) The herbicidal activity is excellent when rated at “4” or “5” but insufficient when rated at “3” or lower. The phytotoxicity is no problematic on practical use when rated at “0” or “1” but not allowed when rated at “2” or higher.
(§4) Cylindrical plastic pots of 10 cm in diameter and 10 cm in depth were filled with soil, in which the seeds of barnyardgrass (Echinochloa crus-galli), entireleaf morningglory (Ipomoea hederacea var. integriuscula) and velvetleaf (Abutilon theophrash) were sowed, and the test plants were grown in a greenhouse for 19 days. Each of the test compounds listed below was formulated into an emulsifiable concentrate according to Formulation Example 2, which was diluted with water containing a spreading agent to a prescribed concentration. The dilution was uniformly sprayed over the foliage of the test plants with a sprayer at a volume of 1000 liters per hectare. After the application, the test plants were grown in the greenhouse for 19 days, and the herbicidal activity was examined.

[7] = tested on: entireleaf morningglory (Ipomoea hederacea var. integriuscula); assay: Test Example 2: foliar treatment on upland fields; set-up: key: rating; 4–5 = excellent activity, 3 or lower = insufficient; conditions: 32 g/ha active ingredient; foliar spray; examined 19 days after application
Excerpt: as §3, §4

[8] = tested on: barnyardgrass (Echinochloa crus-galli); assay: Test Example 2: foliar treatment on upland fields; set-up: key: rating; 4–5 = excellent activity, 3 or lower = insufficient; conditions: 32 g/ha active ingredient; foliar spray; examined 19 days after application
Excerpt: as §3, §4

Cc1c(C(F)(F)F)cnn(-c2c(F)cc(Cl)c3c2CC(C)(C)O3)c1=O [Compound 4-451]
5: Herbicidal activity Barnyardgrass [1] | Herbicidal activity Velvetleaf [2] | Herbicidal activity Entireleaf morningglory [3]

O=c1cc(C(F)(F)F)cnn1-c1ccc(Cl)cc1 [Compound 1-332, 2-(4-chlorophenyl)-5-trifluoromethylpyridazin-3-one]
5: Herbicidal activity Velvetleaf [4] | Herbicidal activity Entireleaf morningglory [5] | Herbicidal activity Barnyardgrass [1] | Herbicidal activity Velvetleaf [2] | Herbicidal activity Entireleaf morningglory [3]

Cc1cc2c(-n3ncc(C(F)(F)F)c(C)c3=O)c(F)cc(Cl)c2o1 [Compound 3-139]
5: Herbicidal activity Barnyardgrass [1] | Herbicidal activity Velvetleaf [2] | Herbicidal activity Entireleaf morningglory [3]

Cc1c(C(F)(F)F)cnn(-c2cc(NS(C)(=O)=O)c(Cl)cc2F)c1=O [Compound 1-367, N-[2-chloro-4-fluoro-5-(4-methyl-5-trifluoromethyl-3-pyridazinon-2-yl)phenyl]methanesulfonamide]
5: Herbicidal activity Velvetleaf [4] | Herbicidal activity Entireleaf morningglory [5] | Herbicidal activity Barnyardgrass [1] | Herbicidal activity Velvetleaf [2] | Herbicidal activity Entireleaf morningglory [3]

Cc1c(C(F)(F)F)cnn(-c2cc(O)c(Cl)cc2F)c1=O [Compound 1-391, 2-[2-fluoro-4-chloro-5-hydroxyphenyl]4-methyl-5-trifluoromethylpyridazin-3-one]
5: Herbicidal activity Velvetleaf [4] | Herbicidal activity Entireleaf morningglory [5] | Herbicidal activity Barnyardgrass [1] | Herbicidal activity Velvetleaf [2] | Herbicidal activity Entireleaf morningglory [3]

COC(=O)C1(C)Cc2c(c(Cl)cc(F)c2-n2ncc(C(F)(F)F)c(C)c2=O)O1 (centres unmarked) [Compound 4-434]
5: Herbicidal activity Velvetleaf [4] | Herbicidal activity Entireleaf morningglory [5] | Herbicidal activity Barnyardgrass [1] | Herbicidal activity Velvetleaf [6] | Herbicidal activity Entireleaf morningglory [7] | Herbicidal activity Barnyardgrass [8] | Herbicidal activity Velvetleaf [2] | Herbicidal activity Entireleaf morningglory [3]

CCC(C)n1c(=O)sc2cc(F)c(-n3ncc(C(F)(F)F)c(C)c3=O)cc21 (centres unmarked) [Compound 2-328]
5: Herbicidal activity Velvetleaf [4] | Herbicidal activity Entireleaf morningglory [5] | Herbicidal activity Barnyardgrass [1] | Herbicidal activity Velvetleaf [2] | Herbicidal activity Entireleaf morningglory [3]

Cc1c(C(F)(F)F)cnn(-c2cc(OC(C)C)c(Br)cc2F)c1=O [Compound 1-1783, 2-(4-bromo-2-fluoro-5-isopropyloxyphenyl)-4-methyl-5-trifluoromethylpyridazin-3-one]
5: Herbicidal activity Velvetleaf [4] | Herbicidal activity Entireleaf morningglory [5] | Herbicidal activity Barnyardgrass [1] | Herbicidal activity Velvetleaf [6] | Herbicidal activity Entireleaf morningglory [7] | Herbicidal activity Barnyardgrass [8] | Herbicidal activity Velvetleaf [2] | Herbicidal activity Entireleaf morningglory [3]

C#CCN1C(=O)COc2cc(F)c(-n3ncc(C(F)(F)F)c(C)c3=O)cc21 [Compound 2-251, 7-Fluoro-6-(4-methyl-5-trifluoromethyl-3-pyridazinon-2-yl)-4-propargyl-2H-1,4-benzoxazin-3-one]
5: Herbicidal activity Velvetleaf [4] | Herbicidal activity Entireleaf morningglory [5] | Herbicidal activity Barnyardgrass [1] | Herbicidal activity Velvetleaf [6] | Herbicidal activity Entireleaf morningglory [7] | Herbicidal activity Barnyardgrass [8] | Herbicidal activity Velvetleaf [2] | Herbicidal activity Entireleaf morningglory [3]

Cc1c(C(F)(F)F)cnn(-c2cc(OC(C)C)c(Cl)cc2F)c1=O [Compound 1-476, 2-[2-fluoro-4-chloro-5-isopropoxyphenyl]4-methyl-5-trifluoromethylpyridazin-3-one]
5: Herbicidal activity Velvetleaf [4] | Herbicidal activity Entireleaf morningglory [5] | Herbicidal activity Barnyardgrass [1] | Herbicidal activity Velvetleaf [2] | Herbicidal activity Entireleaf morningglory [3]

CCOC(=O)C(C)Nc1cc(-n2ncc(C(F)(F)F)c(C)c2=O)c(F)cc1Cl (centres unmarked) [Compound 1-420, Ethyl 2-{2-chloro-4-fluoro-5-(4-methyl-5-trifluoromethyl-3-pyridazinon-2-yl)phenylamino}propionate]
5: Herbicidal activity Velvetleaf [4] | Herbicidal activity Entireleaf morningglory [5] | Herbicidal activity Barnyardgrass [1] | Herbicidal activity Velvetleaf [6] | Herbicidal activity Entireleaf morningglory [7] | Herbicidal activity Barnyardgrass [8] | Herbicidal activity Velvetleaf [2] | Herbicidal activity Entireleaf morningglory [3]

COC(=O)C(C)Sc1cc(-n2ncc(C(F)(F)F)cc2=O)c(F)cc1Cl (centres unmarked) [Compound 1-1221, Methyl 2-{2-chloro-4-fluoro-5-(5-trifluoromethyl-3-pyridazinon-2-yl)phenylthio}propionate]
5: Herbicidal activity Velvetleaf [4] | Herbicidal activity Entireleaf morningglory [5] | Herbicidal activity Barnyardgrass [1] | Herbicidal activity Velvetleaf [6] | Herbicidal activity Entireleaf morningglory [7] | Herbicidal activity Barnyardgrass [8] | Herbicidal activity Velvetleaf [2] | Herbicidal activity Entireleaf morningglory [3]

CCOC(=O)C(C)Sc1cc(-n2ncc(C(F)(F)F)cc2=O)c(F)cc1Cl (centres unmarked) [Compound 1-1222, Ethyl 2-{2-chloro-4-fluoro-5-(5-trifluoromethyl-3-pyridazinon-2-yl)phenylthio}propionate]
5: Herbicidal activity Velvetleaf [4] | Herbicidal activity Entireleaf morningglory [5] | Herbicidal activity Barnyardgrass [1] | Herbicidal activity Velvetleaf [6] | Herbicidal activity Entireleaf morningglory [7] | Herbicidal activity Barnyardgrass [8] | Herbicidal activity Velvetleaf [2] | Herbicidal activity Entireleaf morningglory [3]

C#CCN1C(=O)COc2cc(F)c(-n3nc(C)c(C(F)(F)F)cc3=O)cc21 [Compound 2-821, 7-fluoro-6-(6-methyl-5-trifluoromethyl-3-pyridazinon-2-yl)-4-propargyl-2H-1,4-benzoxazin-3-one]
5: Herbicidal activity Velvetleaf [4] | Herbicidal activity Entireleaf morningglory [5] | Herbicidal activity Barnyardgrass [1] | Herbicidal activity Velvetleaf [6] | Herbicidal activity Entireleaf morningglory [7] | Herbicidal activity Barnyardgrass [8] | Herbicidal activity Velvetleaf [2] | Herbicidal activity Entireleaf morningglory [3]

Cc1c(C(F)(F)F)cnn(-c2cc(NS(=O)(=O)CCl)c(Cl)cc2F)c1=O [Compound 1-369, N-{2-chloro-4-fluoro-5-(4-methyl-5-trifluoromethyl-3-pyridazinon-2-yl)phenyl}chloromethanesulfonamide]
5: Herbicidal activity Velvetleaf [4] | Herbicidal activity Entireleaf morningglory [5] | Herbicidal activity Barnyardgrass [1] | Herbicidal activity Velvetleaf [6] | Herbicidal activity Entireleaf morningglory [7] | Herbicidal activity Barnyardgrass [8] | Herbicidal activity Velvetleaf [2] | Herbicidal activity Entireleaf morningglory [3]

From patent US6869913B1, “Pyridazin-3-one derivatives, their use and intermediates for their production” (Sumitomo Chemical Company, Limited, priority 1995, dated 2005)
